How the values were obtained:
Type in all cases: in vivo
Boophilus microplus = Boophilus microplus injection test; conditions: application rate 20 μg/animal, after 7 days, laying of fertile eggs
Experimental: Solvent: dimethyl sulfoxide […] The animals are transferred into dishes and kept in a climate-controlled room. Efficacy is assessed after 7 days by laying of fertile eggs. Eggs which are not visibly fertile are stored in a climate-controlled cabinet until the larvae hatch after about 42 days.

Phaedon cochleariae = Phaedon cochleariae spray test; conditions: application rate 100 g/ha, larvae on Chinese cabbage leaf discs, after 7 days
Experimental: (§1) Solvent: 78.0 parts by weight of acetone • • 1.5 parts by weight of dimethylformamide Emulsifier: alkylaryl polyglycol ether […] To produce further test concentrations, the formulation is diluted with emulsifier-containing water. Discs of Chinese cabbage leaves (Brassica pekinensis) are sprayed with an active ingredient formulation of the desired concentration and, after drying, populated with larvae of the mustard beetle (Phaedon cochleariae).

Spodoptera frugiperda = Spodoptera frugiperda spray test; conditions: application rate 100 g/ha, caterpillars on maize leaf discs, after 7 days
Experimental: as §1, with “Leaf discs” for “Discs”, “maize (Zea mays)” for “Chinese cabbage leaves (Brassica pekinensis)”, “compound” for “ingredient”, “caterpillars” for “larvae”, “armyworm (Spodoptera frugiperda).” for “mustard beetle (Phaedon cochleariae).”

Ctenocephalides felis = Ctenocephalides felis oral test; conditions: application rate 100 ppm in citrated cattle blood, kill after 2 days
Text: Solvent: dimethyl sulfoxide […] Dilution with citrated cattle blood gives the desired concentration. About 20 unfed adult cat fleas (Ctenocephalides felis) are placed into a chamber which is closed at the top and bottom with gauze. A metal cylinder whose bottom end is closed with parafilm is placed onto the chamber. The cylinder contains the blood/active ingredient formulation, which can be imbibed by the fleas through the parafilm membrane.

Musca domestica = Musca domestica test; conditions: application rate 100 ppm, adult houseflies, kill after 2 days
Experimental: (§2) Solvent: dimethyl sulfoxide
(§3) To produce a suitable preparation of active compound, 10 mg of active compound are mixed with 0.5 ml of dimethyl sulfoxide, and the concentrate is diluted with water to the desired concentration.
Vessels containing a sponge treated with sugar solution and the active ingredient formulation of the desired concentration are populated with 10 adult houseflies (Musca domestica)).
After 2 days, the kill in % is determined. 100% means that all of the flies have been killed; 0% means that none of the flies have been killed.

Lucilia cuprina = Lucilia cuprina test; conditions: application rate 100 ppm, L1 larvae, kill after 2 days
Experimental: as §2, §3
About 20 L1 larvae of the Australian sheep blowfly (Lucilia cuprina) are transferred into a test vessel containing minced horsemeat and the active compound formulation of the desired concentration.
After 2 days, the kill in % is determined. 100% means that all the larvae have been killed; 0% means that no larvae have been killed.

Row | SMILES | efficacy (Boophilus microplus) [%] | efficacy (Phaedon cochleariae) [%] | efficacy (Spodoptera frugiperda) [%] | efficacy (Ctenocephalides felis) [%] | efficacy (Musca domestica) [%] | efficacy (Lucilia cuprina) [%]
1 | COc1cc(C(=O)Nc2cccc(-c3cnn(-c4c(C)cc(C(F)(C(F)(F)F)C(F)(F)F)cc4C(F)(F)F)c3)c2F)ccc1F [Example 71] | 100 | 100 | 100 | 100 | – | –
2 | Cc1cc(C(F)(C(F)(F)F)C(F)(F)F)cc(C(F)(F)F)c1-n1cc(-c2cccc(NC(=O)c3ccc(Cl)nc3)c2F)cn1 [Example 70] | 100 | 100 | 100 | 100 | 100 | 100
3 | Cc1cc(C(=O)Nc2cc(-c3cnn(-c4c(C)cc(C(F)(C(F)(F)F)C(F)(F)F)cc4C(F)(F)F)c3)ccc2F)ccc1F [Example 53] | 100 | – | – | 100 | 100 | –
4 | Cc1cc(C(F)(C(F)(F)F)C(F)(F)F)cc(C(F)(F)F)c1-n1cc(-c2ccc(F)c(NC(=O)c3ccc(Cl)nc3)c2)cn1 [Example 49] | – | 100 | 100 | 100 | 100 | 100
5 | Cc1cc(C(F)(C(F)(F)F)C(F)(F)F)cc(C(F)(F)F)c1-n1cc(-c2ccc(F)c(NC(=O)c3cccs3)c2F)cn1 [Example 26] | 100 | 100 | 100 | 100 | – | 100
6 | COc1cc(C(=O)Nc2cccc(-c3cnn(-c4c(C)cc(C(F)(C(F)(F)F)C(F)(F)F)cc4C(F)(F)F)c3)c2F)ccc1C#N [Example 74] | 100 | 100 | 100 | – | – | 100
7 | COc1ccc(C(=O)Nc2cccc(-c3cnn(-c4c(C)cc(C(F)(C(F)(F)F)C(F)(F)F)cc4C(F)(F)F)c3)c2F)cc1F [Example 72] | 100 | 100 | – | 95 | – | 100
8 | Cc1cc(C(F)(C(F)(F)F)C(F)(F)F)cc(C(F)(F)F)c1-n1cc(-c2cc(NC(=O)c3ccsc3)ccc2F)cn1 [Example 2-9] | 100 | – | – | 95 | – | 100
9 | Cc1ccc(C(=O)Nc2cc(-c3cnn(-c4c(C)cc(C(F)(C(F)(F)F)C(F)(F)F)cc4C(F)(F)F)c3)ccc2F)cc1C [Example 52] | 100 | – | – | – | 100 | –
10 | CCOc1cc(C(=O)Nc2cc(-c3cnn(-c4c(C)cc(C(F)(C(F)(F)F)C(F)(F)F)cc4C(F)(F)F)c3)ccc2F)ccc1F [Example 29] | 100 | – | – | 80 | – | –
11 | Cc1cc(C(F)(C(F)(F)F)C(F)(F)F)cc(C(F)(F)F)c1-n1cc(-c2ccc(N(C)C)c(NC(=O)c3ccsc3)c2)cn1 [Example 37] | 100 | 100 | 100 | 100 | – | 100
12 | COc1cc(C(=O)Nc2c(F)ccc(-c3cnn(-c4c(C)cc(C(F)(C(F)(F)F)C(F)(F)F)cc4C(F)(F)F)c3)c2F)ccc1F [Example 27] | 100 | – | – | 100 | – | 90
13 | Cc1cc(C(F)(C(F)(F)F)C(F)(F)F)cc(C(F)(F)F)c1-n1cc(-c2cccc(NC(=O)c3ccsc3)c2F)cn1 [Example 75] | 100 | – | – | 95 | – | 80
14 | COc1cc(C(=O)Nc2cc(-c3cnn(-c4c(C)cc(C(F)(C(F)(F)F)C(F)(F)F)cc4C(F)(F)F)c3)ccc2F)ccc1C#N [Example 35] | – | 100 | 100 | – | – | –
15 | COc1cccc(C(=O)Nc2cccc(-c3cnn(-c4c(C)cc(C(F)(C(F)(F)F)C(F)(F)F)cc4C(F)(F)F)c3)c2F)c1 [Example 73] | 100 | 100 | 100 | 100 | – | 100
16 | COc1ccc(C(=O)Nc2cc(-c3cnn(-c4c(C)cc(C(F)(C(F)(F)F)C(F)(F)F)cc4C(F)(F)F)c3)ccc2F)cc1F [Example 55] | 100 | 100 | – | 100 | – | 80
17 | COc1cc(C(=O)Nc2ccc(F)c(-c3cnn(-c4c(C)cc(C(F)(C(F)(F)F)C(F)(F)F)cc4C(F)(F)F)c3)c2)ccc1F [Example 2-5] | 100 | – | – | – | – | –
18 | Cc1cc(C(F)(C(F)(F)F)C(F)(F)F)cc(C(F)(F)F)c1-n1cc(-c2cc(NC(=O)c3cnco3)ccc2F)cn1 [Example 2-11] | 100 | 100 | 100 | 100 | – | 100
19 | Cc1cc(C(F)(C(F)(F)F)C(F)(F)F)cc(C(F)(F)F)c1-n1cc(-c2ccc(F)c(NC(=O)c3ccc(Cl)c(F)c3)c2)cn1 [Example 56] | 100 | – | – | 100 | – | 100
20 | Cc1ncc(-c2cnn(-c3c(Cl)cc(C(F)(C(F)(F)F)C(F)(F)F)cc3Cl)c2)cc1NC(=O)c1ccncc1 [Example 18] | – | 83 | 100 | – | – | –
21 | COc1cc(C(=O)Nc2ccc(F)c(-c3cnn(-c4c(C)cc(C(F)(C(F)(F)F)C(F)(F)F)cc4C(F)(F)F)c3)c2)ccc1C#N [Example 2-8] | 100 | 83 | – | – | – | 90
22 | Cc1cc(C(F)(C(F)(F)F)C(F)(F)F)cc(C(F)(F)F)c1-n1cc(-c2cccc(NC(=O)c3cccs3)c2F)cn1 [Example 76] | 100 | 100 | 100 | 100 | – | 100
23 | Cc1cc(C(F)(C(F)(F)F)C(F)(F)F)cc(C(F)(F)F)c1-n1cc(-c2ccc(F)c(N(C)C(=O)c3ccc(F)nc3)c2)cn1 [Example 48] | 100 | 100 | 100 | 100 | 100 | 100
24 | Cc1cc(C(F)(C(F)(F)F)C(F)(F)F)cc(C(F)(F)F)c1-n1cc(-c2cc(NC(=O)c3ccccc3)ccc2F)cn1 [Example 2-10] | 100 | – | – | – | – | –
25 | Cc1cc(C(F)(C(F)(F)F)C(F)(F)F)cc(C)c1-n1cc(-c2ccc(N(C)C)c(NC(=O)c3ccc(F)cc3)c2)cn1 [Example 21] | 100 | – | 100 | 100 | – | –
26 | COc1ccc(C(=O)Nc2ccc(F)c(-c3cnn(-c4c(C)cc(C(F)(C(F)(F)F)C(F)(F)F)cc4C(F)(F)F)c3)c2)cc1F [Example 2-6] | 80 | – | – | – | – | –
27 | Cc1cc(C(F)(C(F)(F)F)C(F)(F)F)cc(C(F)(F)F)c1-n1cc(-c2ccc(N(C)C)c(NC(=O)C3(C)CC3)c2)cn1 [Example 36] | 100 | 100 | 100 | 100 | – | 100
28 | COc1cc(C(=O)Nc2cc(-c3cnn(-c4c(C)cc(C(F)(C(F)(F)F)C(F)(F)F)cc4C(F)(F)F)c3)ccc2F)ccc1F [Example 28] | – | 100 | – | – | – | –
29 | COc1cc(C(=O)Nc2cc(-c3cnn(-c4c(C)cc(C(F)(C(F)(F)F)C(F)(F)F)cc4C(F)(F)F)c3)ccc2F)ccc1C [Example 47] | 100 | – | – | 80 | – | –

Reference: patent US10202351B2, “Pyrazolyl derivatives as pest control agents” (BAYER ANIMAL HEALTH GMBH, priority 2015, dated 2019)
